According to ChEMBL document CHEMBL1150042, “The synthesis of BRL 49653 - a novel and potent antihyperglycaemic agent” (Bioorg Med Chem Lett, 1994):

Species: Mus musculus
Test: Minimum effective dose for anti-hyperglycaemic activity was determined in C57B1/6 ob/ob obese mouse
Assay type: functional

O=C(NCCOc1ccc(CC2SC(=O)NC2=O)cc1)Nc1ccccc1 (stereo not drawn)
MED: 100 uM.kg/diet

CC1(COc2ccc(CC3SC(=O)NC3=O)cc2)CCCC(O)C1 (stereo not drawn)
MED: 500 uM.kg/diet

CN(CCOc1ccc(CC2SC(=O)NC2=O)cc1)c1nc2ccccc2o1 (stereo not drawn) [BRL-48482]
MED: 3 uM.kg/diet

CC1(COc2ccc(CC3SC(=O)NC3=O)cc2)CCCCC1 (stereo not drawn) [CIGLITAZONE]
MED: 3000 uM.kg/diet

O=C1NC(=O)C(Cc2ccc3c(c2)CC[C@H](Cc2ccccc2)O3)S1 (stereo partly drawn) [ENGLITAZONE]
MED: 200 uM.kg/diet

CCc1ccc(CCOc2ccc(CC3SC(=O)NC3=O)cc2)nc1 (stereo not drawn) [PIOGLITAZONE]
MED: 200 uM.kg/diet

CN(CCOc1ccc(CC2SC(=O)NC2=O)cc1)c1ccccn1 (stereo not drawn) [ROSIGLITAZONE]
MED: 3 µM/kg

Cc1c(C)c2c(c(C)c1O)CCC(C)(COc1ccc(CC3SC(=O)NC3=O)cc1)O2 (stereo not drawn) [TROGLITAZONE]
MED: 600 uM.kg/diet
